Data reported in the supplement of paper PMC10307832.

How the values were obtained:
Assay in all cases: relative viability (nuclei count vs DMSO), 5 days (fraction); higher = more cells survive
ChaGo-K-1 = test system: ChaGo-K-1
Outline: (§1)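 Dosing by pin tool came one day after lung cancer cell lines were seeded in 1536-well plates, using either one drug or a fixed anchor-drug dose plus five library-drug doses (not always all listed) in √10 steps. After 5 days, nuclei were counted on 4× images. Relative viability is treated-well nuclei count divided by vehicle-well nuclei count, and values are medians of duplicate plates.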

EMC-BAC-2 = test system: EMC-BAC-2
Outline: as §1

EPLC-272H = test system: EPLC-272H
Outline: as §1

H3255 = test system: H3255
Outline: as §1

HCC-827 = test system: HCC-827
Outline: as §1

LCLC-103H = test system: LCLC-103H
Outline: as §1

LCLC-97TM1 = test system: LCLC-97TM1
Outline: as §1

NCI-H1355 = test system: NCI-H1355
Outline: as §1

NCI-H1395 = test system: NCI-H1395
Outline: as §1

NCI-H1563 = test system: NCI-H1563
Outline: as §1

NCI-H1651 = test system: NCI-H1651
Outline: as §1

NCI-H1793 = test system: NCI-H1793
Outline: as §1

NCI-H1944 = test system: NCI-H1944
Outline: as §1

NCI-H2023 = test system: NCI-H2023
Outline: as §1

NCI-H2085 = test system: NCI-H2085
Outline: as §1

NCI-H2087 = test system: NCI-H2087
Outline: as §1

NCI-H2405 = test system: NCI-H2405
Outline: as §1

NCI-H322M = test system: NCI-H322M
Outline: as §1

NCI-H520 = test system: NCI-H520
Outline: as §1

NCI-H650 = test system: NCI-H650
Outline: as §1

SK-MES-1 = test system: SK-MES-1
Outline: as §1

UMC-11 = test system: UMC-11
Outline: as §1

Compound CC1(C)CCC(c2ccc(Cl)cc2)=C(CN2CCN(c3ccc(C(=O)NS(=O)(=O)c4ccc(N[C@H](CCN5CCOCC5)CSc5ccccc5)c(S(=O)(=O)C(F)(F)F)c4)cc3)CC2)C1 [Navitoclax] + Cc1nc(Nc2ncc(C(=O)Nc3c(C)cccc3Cl)s2)cc(N2CCN(CCO)CC2)n1 [Dasatinib] (partner 0.075 µM) has a relative viability (ChaGo-K-1; first compound 0.005 µM) of 0.479, a relative viability (ChaGo-K-1; first compound 0.01581 µM) of 0.627 and a relative viability (ChaGo-K-1; first compound 0.05 µM) of 0.322. For the same compound, the relative viability (ChaGo-K-1; first compound 0.1581 µM) was 0.639, the relative viability (ChaGo-K-1; first compound 0.5 µM) was 0.666 and the relative viability (EMC-BAC-2; first compound 0.005 µM) was 0.29. The relative viability (EMC-BAC-2; first compound 0.01581 µM) was 0.354, the relative viability (EMC-BAC-2; first compound 0.05 µM) was 0.312 and the relative viability (EMC-BAC-2; first compound 0.1581 µM) was 0.267. It also gave a relative viability (EMC-BAC-2; first compound 0.5 µM) of 0.288, a relative viability (EPLC-272H; first compound 0.005 µM) of 0.372 and a relative viability (EPLC-272H; first compound 0.05 µM) of 0.359. The relative viability (EPLC-272H; first compound 0.1581 µM) was 0.361, the relative viability (EPLC-272H; first compound 0.5 µM) was 0.345 and the relative viability (H3255; first compound 0.005 µM) was 0.344. For the same compound, the relative viability (H3255; first compound 0.01581 µM) was 0.424, the relative viability (H3255; first compound 0.05 µM) was 0.346 and the relative viability (H3255; first compound 0.1581 µM) was 0.31. For the same compound, the relative viability (H3255; first compound 0.5 µM) was 0.204, the relative viability (HCC-827; first compound 0.005 µM) was 0.388 and the relative viability (HCC-827; first compound 0.01581 µM) was 0.387. For the same compound, the relative viability (HCC-827; first compound 0.05 µM) was 0.297, the relative viability (HCC-827; first compound 0.1581 µM) was 0.271 and the relative viability (HCC-827; first compound 0.5 µM) was 0.359. For the same compound, the relative viability (LCLC-103H; first compound 0.005 µM) was 0.468, the relative viability (LCLC-103H; first compound 0.01581 µM) was 0.496 and the relative viability (LCLC-103H; first compound 0.05 µM) was 0.31. The relative viability (LCLC-103H; first compound 0.1581 µM) was 0.539, the relative viability (LCLC-103H; first compound 0.5 µM) was 0.474 and the relative viability (LCLC-97TM1; first compound 0.005 µM) was 0.822. The relative viability (LCLC-97TM1; first compound 0.01581 µM) was 0.939, the relative viability (LCLC-97TM1; first compound 0.05 µM) was 0.648 and the relative viability (LCLC-97TM1; first compound 0.1581 µM) was 0.825. It also gave a relative viability (LCLC-97TM1; first compound 0.5 µM) of 0.826, a relative viability (NCI-H1355; first compound 0.005 µM) of 0.765 and a relative viability (NCI-H1355; first compound 0.01581 µM) of 0.796. It also gave a relative viability (NCI-H1355; first compound 0.05 µM) of 0.753, a relative viability (NCI-H1355; first compound 0.1581 µM) of 0.699 and a relative viability (NCI-H1355; first compound 0.5 µM) of 0.729. It also gave a relative viability (NCI-H1395; first compound 0.005 µM) of 0.404, a relative viability (NCI-H1395; first compound 0.01581 µM) of 0.42 and a relative viability (NCI-H1395; first compound 0.05 µM) of 0.378. For the same compound, the relative viability (NCI-H1395; first compound 0.1581 µM) was 0.387, the relative viability (NCI-H1395; first compound 0.5 µM) was 0.483 and the relative viability (NCI-H1563; first compound 0.005 µM) was 0.464. For the same compound, the relative viability (NCI-H1563; first compound 0.01581 µM) was 0.458, the relative viability (NCI-H1563; first compound 0.05 µM) was 0.46 and the relative viability (NCI-H1563; first compound 0.1581 µM) was 0.434. The relative viability (NCI-H1563; first compound 0.5 µM) was 0.474, the relative viability (NCI-H1651; first compound 0.005 µM) was 0.37 and the relative viability (NCI-H1651; first compound 0.01581 µM) was 0.41. The relative viability (NCI-H1651; first compound 0.05 µM) was 0.308, the relative viability (NCI-H1651; first compound 0.1581 µM) was 0.455 and the relative viability (NCI-H1651; first compound 0.5 µM) was 0.456. For the same compound, the relative viability (NCI-H1793; first compound 0.005 µM) was 0.409, the relative viability (NCI-H1793; first compound 0.01581 µM) was 0.325 and the relative viability (NCI-H1793; first compound 0.1581 µM) was 0.293. It also gave a relative viability (NCI-H1793; first compound 0.5 µM) of 0.147, a relative viability (NCI-H1944; first compound 0.005 µM) of 0.235 and a relative viability (NCI-H1944; first compound 0.01581 µM) of 0.235. For the same compound, the relative viability (NCI-H1944; first compound 0.05 µM) was 0.268, the relative viability (NCI-H1944; first compound 0.1581 µM) was 0.282 and the relative viability (NCI-H1944; first compound 0.5 µM) was 0.398. The relative viability (NCI-H2023; first compound 0.005 µM) was 0.488, the relative viability (NCI-H2023; first compound 0.01581 µM) was 0.594 and the relative viability (NCI-H2023; first compound 0.05 µM) was 0.621. For the same compound, the relative viability (NCI-H2023; first compound 0.1581 µM) was 0.648, the relative viability (NCI-H2023; first compound 0.5 µM) was 0.561 and the relative viability (NCI-H2085; first compound 0.005 µM) was 0.234. The relative viability (NCI-H2085; first compound 0.01581 µM) was 0.234, the relative viability (NCI-H2085; first compound 0.05 µM) was 0.199 and the relative viability (NCI-H2085; first compound 0.1581 µM) was 0.228. It also gave a relative viability (NCI-H2085; first compound 0.5 µM) of 0.315, a relative viability (NCI-H2087; first compound 0.005 µM) of 0.901 and a relative viability (NCI-H2087; first compound 0.01581 µM) of 0.88. For the same compound, the relative viability (NCI-H2087; first compound 0.1581 µM) was 0.887, the relative viability (NCI-H2087; first compound 0.5 µM) was 0.793 and the relative viability (NCI-H2405; first compound 0.005 µM) was 0.189. It also gave a relative viability (NCI-H2405; first compound 0.01581 µM) of 0.209, a relative viability (NCI-H2405; first compound 0.05 µM) of 0.146 and a relative viability (NCI-H2405; first compound 0.1581 µM) of 0.196. For the same compound, the relative viability (NCI-H2405; first compound 0.5 µM) was 0.132, the relative viability (NCI-H322M; first compound 0.005 µM) was 0.263 and the relative viability (NCI-H322M; first compound 0.01581 µM) was 0.24. The relative viability (NCI-H322M; first compound 0.05 µM) was 0.252, the relative viability (NCI-H322M; first compound 0.1581 µM) was 0.271 and the relative viability (NCI-H322M; first compound 0.5 µM) was 0.324. It also gave a relative viability (NCI-H520; first compound 0.01581 µM) of 0.205, a relative viability (NCI-H520; first compound 0.05 µM) of 0.272 and a relative viability (NCI-H520; first compound 0.1581 µM) of 0.201. The relative viability (NCI-H520; first compound 0.5 µM) was 0.258, the relative viability (NCI-H650; first compound 0.005 µM) was 0.456 and the relative viability (NCI-H650; first compound 0.01581 µM) was 0.473. The relative viability (NCI-H650; first compound 0.05 µM) was 0.463, the relative viability (NCI-H650; first compound 0.1581 µM) was 0.477 and the relative viability (NCI-H650; first compound 0.5 µM) was 0.459. For the same compound, the relative viability (SK-MES-1; first compound 0.005 µM) was 0.324, the relative viability (SK-MES-1; first compound 0.01581 µM) was 0.466 and the relative viability (SK-MES-1; first compound 0.05 µM) was 0.395. The relative viability (SK-MES-1; first compound 0.1581 µM) was 0.393, the relative viability (SK-MES-1; first compound 0.5 µM) was 0.43 and the relative viability (UMC-11; first compound 0.005 µM) was 0.451. It also gave a relative viability (UMC-11; first compound 0.01581 µM) of 0.464, a relative viability (UMC-11; first compound 0.05 µM) of 0.502 and a relative viability (UMC-11; first compound 0.1581 µM) of 0.471. For the same compound, the relative viability (UMC-11; first compound 0.5 µM) was 0.324.
